Experimental data: the CheMixHub viscosity set
± gives the uncertainty stated by the source.

Assay: xn = mol fraction of the nth substance listed

CCC(C)(C)OC + CCCO
298.15 K, 101.33 kPa
Conditions	viscosity [mPa·s]
x1 = 0.0142	1.889 ± 0.057
x1 = 0.0405	1.759 ± 0.054
x1 = 0.0642	1.647 ± 0.05
x1 = 0.0889	1.548 ± 0.048
x1 = 0.1148	1.461 ± 0.045
x1 = 0.152	1.33 ± 0.042
x1 = 0.2075	1.18 ± 0.038
x1 = 0.2876	1.002 ± 0.033
x1 = 0.289	0.999 ± 0.033
x1 = 0.3381	0.912 ± 0.03
x1 = 0.3924	0.833 ± 0.028
x1 = 0.4452	0.767 ± 0.026
x1 = 0.489	0.72 ± 0.025
x1 = 0.5363	0.677 ± 0.024
x1 = 0.5867	0.633 ± 0.023
x1 = 0.645	0.594 ± 0.022
x1 = 0.6933	0.564 ± 0.021
x1 = 0.7588	0.53 ± 0.02
x1 = 0.8347	0.496 ± 0.019
x1 = 0.9093	0.455 ± 0.018
x1 = 0.947	0.454 ± 0.018

BrC(Br)Br + N#Cc1ccccc1
298.15 K, 101 kPa
Conditions	viscosity [mPa·s]
x1 = 0.1782	1.372 ± 0.043
x1 = 0.3333	1.548 ± 0.044
x1 = 0.4937	1.727 ± 0.045
x1 = 0.6066	1.861 ± 0.045
x1 = 0.7005	1.88 ± 0.045
x1 = 0.8886	1.893 ± 0.045

C=Cc1ccccc1 + ClC(Cl)Cl
viscosity [mPa·s], 101.33 kPa
Conditions	x1 = 0.101	x1 = 0.2004	x1 = 0.3009	x1 = 0.4022	x1 = 0.5055	x1 = 0.5997	x1 = 0.705	x1 = 0.7962	x1 = 0.9
298.15 K	0.5838 ± 0.0081	0.6109 ± 0.0084	0.6357 ± 0.0086	0.6615 ± 0.0089	0.6849 ± 0.0091	0.7054 ± 0.0093	0.7267 ± 0.0096	0.7443 ± 0.0097	0.7286 ± 0.0095
303.15 K	0.5575 ± 0.0078	0.5816 ± 0.0081	0.6033 ± 0.0083	0.628 ± 0.0085	0.6463 ± 0.0087	0.6686 ± 0.0089	0.6832 ± 0.0091	0.6993 ± 0.0092	0.6841 ± 0.0091
308.15 K	0.5324 ± 0.0075	0.5513 ± 0.0077	0.5742 ± 0.008	0.5915 ± 0.0081	0.6109 ± 0.0083	0.6272 ± 0.0085	0.6447 ± 0.0087	0.6581 ± 0.0088	0.6521 ± 0.0087

BrC(Br)Br + CC(C)CCO
viscosity [mPa·s], 101.33 kPa
Conditions	x1 = 0.099	x1 = 0.203	x1 = 0.299	x1 = 0.422	x1 = 0.498	x1 = 0.599	x1 = 0.702	x1 = 0.803	x1 = 0.9
298.15 K	3.419 ± 0.042	3.063 ± 0.037	2.77 ± 0.034	2.415 ± 0.03	2.265 ± 0.028	2.111 ± 0.026	1.957 ± 0.025	1.888 ± 0.024	1.873 ± 0.024
303.15 K	2.937 ± 0.036	2.643 ± 0.033	2.384 ± 0.03	2.145 ± 0.027	2.025 ± 0.025	1.909 ± 0.024	1.795 ± 0.023	1.739 ± 0.022	1.737 ± 0.022
308.15 K	2.527 ± 0.031	2.306 ± 0.029	2.111 ± 0.026	1.905 ± 0.024	1.815 ± 0.023	1.729 ± 0.022	1.647 ± 0.021	1.61 ± 0.021	1.605 ± 0.02

C=Cc1ccccc1 + CCCCCCC
viscosity [mPa·s], 101.33 kPa
Conditions	x1 = 0.1018	x1 = 0.202	x1 = 0.2988	x1 = 0.3984	x1 = 0.4989	x1 = 0.5997	x1 = 0.6992	x1 = 0.8006	x1 = 0.8979
298.15 K	0.398 ± 0.01	0.412 ± 0.01	0.427 ± 0.011	0.448 ± 0.011	0.471 ± 0.011	0.5 ± 0.011	0.536 ± 0.011	0.581 ± 0.011	0.638 ± 0.011
303.15 K	0.379 ± 0.01	0.393 ± 0.01	0.406 ± 0.01	0.425 ± 0.01	0.445 ± 0.011	0.473 ± 0.011	0.508 ± 0.011	0.55 ± 0.011	0.599 ± 0.011
308.15 K	0.36 ± 0.01	0.372 ± 0.01	0.386 ± 0.01	0.405 ± 0.01	0.423 ± 0.01	0.45 ± 0.011	0.481 ± 0.011	0.519 ± 0.011	0.565 ± 0.011
